Data as given in publication PMC10597491 (PLOS ONE, 2023).
Bridge positions count the residues as written; N and C are the ends. Ends that are not written are not given here.

What was measured:
[1] = Plasma stability in vitro, human plasma; assay type: in vitro ADME; design: dose or concentration left out as unconfirmed; details: 37°C, incubated in duplicate, intact peptide by LC/MS/MS, read-out: t1/2 in human plasma (converted)
Excerpt: (§1) Affinity maturation of these initial families produced ligands with improved affinities; and combinations of these ligands (one each for IL-7Rα and γc) were joined into heterodimers in a variety of orientations (i.e., joined by N-termini, C-termini, or N-to-C termini), with several connection chemistries, for testing as IL-7R agonists in cell-based assays. The lead peptide agonist for detailed characterization, as described here, is a fusion of peptides MDK1248 and MDK1188, joined with a short intervening linker to form the single-chain peptide MDK1472. The peptides were analyzed for sequence similarity to IL-7, and none was found.
(§2) Supplementary file pone.0286834.s001.pptx: S1 Fig Plasma stability of MDK 1472 in vitro. […] MDK1472 or control peptide YGGFL incubated in duplicate in human or cynomolgus plasma at 37°C. At indicated time points, compounds were isolated from the plasma and the quantity of intact peptides measured by LC/MS/MS (Study performed by Quintara Discovery, Hayward, CA). (PPTX) Click here for additional data file.

[2] = Plasma stability in vitro, cynomolgus plasma; assay type: in vitro ADME; design: dose or concentration left out as unconfirmed; details: cynomolgus monkey, 37°C, incubated in duplicate, intact peptide by LC/MS/MS, read-out: t1/2 in cynomolgus plasma (converted)
Excerpt: as §1, §2

human PBMCs [3] = assay: pSTAT5 flow cytometry in human PBMC subsets; assay type: cell-based
Excerpt: (§3) Frozen PBMCs from 5 healthy human donors (A, B) and cynomolgus monkey (C) were rested (A, C) or activated with anti-CD3/CD28 (B). Cells were stained for viability, followed by cell surface antibody staining on ice. […] After washing, cells were fixed, permeabilized, stained with anti-pSTAT5 antibody, and analyzed immediately by flow cytometry. The mean fluorescence intensity (MFI) of pSTAT5 detection was shown as mean ± SEM. […] Flow cytometry gating data shown in S2 Fig.
(§4) To detect phopho-STAT5 in immune subsets of PBMCs by flow cytometry, frozen human and cynomolgus macaques PBMCs (Stemcell Technologies, Cat# 70025.2 and iQ Biosciences, Cat# IQB-MnPB102, respectively) from 5 different healthy donors were thawed and rested overnight in T-cell media (CTS™ OpTmizer™ T-Cell Expansion SFM, ThermoFisher Scientific Cat# A1048501) at 37°C. Cells were stained with a viability dye for 30 min at 37°C followed by surface marker antibodies for 30 min on ice (S3 Table), then treated with serially diluted test compounds in the medium for 30 min. […] Antibody-stained cells were analyzed immediately by flow cytometry using the Novocyte Advanteon instrument (Agilent), and the data were analyzed using FlowJo software. Fluorescence minus one (FMO) controls were used to draw gates. […]

cynomolgus monkey PBMCs = assay: pSTAT5 flow cytometry in cynomolgus PBMC subsets; assay type: cell-based, cynomolgus macaque; details: rested cynomolgus PBMCs
Excerpt: as §3, §4

human PBMCs [4] = assay: Proliferation and expansion of PBMC subpopulations in culture; assay type: cell-based
Excerpt: An essential feature of IL-7-mediated homeostatic lymphoid maintenance is the proliferation of naive T-cells, expanding both recent thymic emigrants and circulating TN clones to sustain the population and preserve a diverse TCR repertoire in the naive T-cell compartment. […] In the CD8+ population, Ki-67+ frequency reached a peak by day 7, declining slightly by day 16. […] The high Ki-67 background in untreated samples of Treg and NK cells may indicate a high basal turnover rate of these cell types in culture.
Data are shown as mean ± SEM. Flow cytometry gating data shown in S2 Fig.
On days 3, 7, 16, and 30, cell aliquots were taken and analyzed by flow cytometry of CD8+ T naïve and memory populations. (A) Schematic of the putative differentiation pathway of the memory T cell compartment. (B) differential gating of naïve and early memory (Tscm) subpopulations. (C) Cell counts of treated and untreated memory subpopulations over time. (D) Stacked bar representation of changes in total memory T cell subpopulations over time. […] Data are shown as mean ± SEM. Detailed gating information is provided in S4 Fig.
Frozen human PBMCs from 5 healthy donors (Stemcell Technologies, Cat# 70025.2, Lot numbers 2108409012, 2109407009, 210680104C, 210680801C, 211280501C, 220781802C) were thawed and rested overnight at 37°C, 5% CO2 in CTS™ OpTmizer™ T-Cell Expansion SFM (ThermoFisher Scientific Cat# A1048501). […] At indicated time points, cell aliquots were taken, and cell surface staining was performed using antibodies shown in S3 Table followed by viability dye staining. For Ki-67 and FoxP3 staining, surfaced stained cells were fixed and permeabilized according to the manufacturer’s instructions and analyzed immediately using the Novocyte Advanteon instrument (Agilent). The data were analyzed using FlowJo software. Fluorescence Minus One (FMO) controls were used to draw gates. Percentages of Ki-67+ cell populations were expressed as average ± SEM. Memory T-cells are as follows: Tn (CD45RA+CCR7+CD28+CD95-), Tscm (CD45RA+CCR7+CD28+CD95+), Tem (CD45RA-CCR7-), Tcm (CD45RA-CCR7+), and Temra (CD45RA+CCR7-). To count cells per well, at each assay time point 50 μL of the cells were taken from each well and incubated with 200 μL of the viability dye solution. The NovoCyte Advanteon flow cytometer was set to analyze precisely 50 μL ([…] original culture volume), which allowed the calculation of the absolute live cell counts. Because the culture volumes change over time due to splitting and removal, dilution factors were considered when calculating the total number of cells.

[5] = system: rested human CD8+ T-cells; details: IL-7-treated CD8+ cells, over 6 hours at 37°C; cited from earlier work
Excerpt: Internalization of the ternary signaling complex also depletes the local ...

half-life [1] [h] | half-life [2] [h] | Substance | pSTAT5 response of NK cells (human PBMCs [3]) | efficacy in cynomolgus lymphocyte subtypes (cynomolgus monkey PBMCs) | CD4+ and CD8+ maximal counts over day 1 baseline (human PBMCs [4]; between days 7 and 16) [fold] | CD8+ Tscm cell number increase (human PBMCs [4]; day 30, 100 nM MDK-703 or 1 nM IL-7, untreated 5-fold) [fold] | CD8+ T-cell number, increase over baseline (human PBMCs [4]; day 30 in culture, 100 nM MDK-703 or 1 nM IL-7, 5 donors) [fold] | CD8+ Temra expansion (human PBMCs [4]; over 30 days) [fold] | disappearance of surface IL-7Rα [5]
60 | 104 | Ac-GWGIPWCTLDPGSLQCAWLGKHGGGGSGGVVCQDWEGVELCWQGG (disulfide 7-16, 32-41) [MDK1472] |  |  |  |  |  |  | 
 |  | IL-7: human IL-7 cytokine (Peprotech) | no pSTAT5 response | equivalent efficacy | 5 | 1300 | 5.2 | 7 | ~ 80%
